# Laboratory results published in patent US10077261B2, “Imidazolin-5-one derivative useful as FASN inhibitors for the treatment of cancer” (Janssen Pharmaceutica NV, priority 2012, dated 2018).
# Biological target: T1, hFASN enzyme (full length) (Homo sapiens, UniProt P49327)
# T1 construct: 10 μL hFASN enzyme (full length, 300 ng, purified in house); made in house
# Assay: Fatty Acid Synthase (FASN) inhibition scintillation proximity assay
# Format: biochemical
# Conditions: for inhibition at 10 µM: read-out: Human FASN % inhibition @ 10 μM, 10 μM test compound; for IC50: read-out: Human FASN pIC50 (converted)
# Outline: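 Compounds at 0.01–30 μM were mixed with 300 ng purified full-length enzyme in 100 mM KH2PO4 pH 7.5, 1 mM DTT. Substrates ³H-acetyl-CoA and malonyl-CoA were then converted, and bead addition stopped the reaction. Signal was normalised to low and high plate controls and fitted by 4-parameter nonlinear regression.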
# T1 sequence (P49327 whole entry): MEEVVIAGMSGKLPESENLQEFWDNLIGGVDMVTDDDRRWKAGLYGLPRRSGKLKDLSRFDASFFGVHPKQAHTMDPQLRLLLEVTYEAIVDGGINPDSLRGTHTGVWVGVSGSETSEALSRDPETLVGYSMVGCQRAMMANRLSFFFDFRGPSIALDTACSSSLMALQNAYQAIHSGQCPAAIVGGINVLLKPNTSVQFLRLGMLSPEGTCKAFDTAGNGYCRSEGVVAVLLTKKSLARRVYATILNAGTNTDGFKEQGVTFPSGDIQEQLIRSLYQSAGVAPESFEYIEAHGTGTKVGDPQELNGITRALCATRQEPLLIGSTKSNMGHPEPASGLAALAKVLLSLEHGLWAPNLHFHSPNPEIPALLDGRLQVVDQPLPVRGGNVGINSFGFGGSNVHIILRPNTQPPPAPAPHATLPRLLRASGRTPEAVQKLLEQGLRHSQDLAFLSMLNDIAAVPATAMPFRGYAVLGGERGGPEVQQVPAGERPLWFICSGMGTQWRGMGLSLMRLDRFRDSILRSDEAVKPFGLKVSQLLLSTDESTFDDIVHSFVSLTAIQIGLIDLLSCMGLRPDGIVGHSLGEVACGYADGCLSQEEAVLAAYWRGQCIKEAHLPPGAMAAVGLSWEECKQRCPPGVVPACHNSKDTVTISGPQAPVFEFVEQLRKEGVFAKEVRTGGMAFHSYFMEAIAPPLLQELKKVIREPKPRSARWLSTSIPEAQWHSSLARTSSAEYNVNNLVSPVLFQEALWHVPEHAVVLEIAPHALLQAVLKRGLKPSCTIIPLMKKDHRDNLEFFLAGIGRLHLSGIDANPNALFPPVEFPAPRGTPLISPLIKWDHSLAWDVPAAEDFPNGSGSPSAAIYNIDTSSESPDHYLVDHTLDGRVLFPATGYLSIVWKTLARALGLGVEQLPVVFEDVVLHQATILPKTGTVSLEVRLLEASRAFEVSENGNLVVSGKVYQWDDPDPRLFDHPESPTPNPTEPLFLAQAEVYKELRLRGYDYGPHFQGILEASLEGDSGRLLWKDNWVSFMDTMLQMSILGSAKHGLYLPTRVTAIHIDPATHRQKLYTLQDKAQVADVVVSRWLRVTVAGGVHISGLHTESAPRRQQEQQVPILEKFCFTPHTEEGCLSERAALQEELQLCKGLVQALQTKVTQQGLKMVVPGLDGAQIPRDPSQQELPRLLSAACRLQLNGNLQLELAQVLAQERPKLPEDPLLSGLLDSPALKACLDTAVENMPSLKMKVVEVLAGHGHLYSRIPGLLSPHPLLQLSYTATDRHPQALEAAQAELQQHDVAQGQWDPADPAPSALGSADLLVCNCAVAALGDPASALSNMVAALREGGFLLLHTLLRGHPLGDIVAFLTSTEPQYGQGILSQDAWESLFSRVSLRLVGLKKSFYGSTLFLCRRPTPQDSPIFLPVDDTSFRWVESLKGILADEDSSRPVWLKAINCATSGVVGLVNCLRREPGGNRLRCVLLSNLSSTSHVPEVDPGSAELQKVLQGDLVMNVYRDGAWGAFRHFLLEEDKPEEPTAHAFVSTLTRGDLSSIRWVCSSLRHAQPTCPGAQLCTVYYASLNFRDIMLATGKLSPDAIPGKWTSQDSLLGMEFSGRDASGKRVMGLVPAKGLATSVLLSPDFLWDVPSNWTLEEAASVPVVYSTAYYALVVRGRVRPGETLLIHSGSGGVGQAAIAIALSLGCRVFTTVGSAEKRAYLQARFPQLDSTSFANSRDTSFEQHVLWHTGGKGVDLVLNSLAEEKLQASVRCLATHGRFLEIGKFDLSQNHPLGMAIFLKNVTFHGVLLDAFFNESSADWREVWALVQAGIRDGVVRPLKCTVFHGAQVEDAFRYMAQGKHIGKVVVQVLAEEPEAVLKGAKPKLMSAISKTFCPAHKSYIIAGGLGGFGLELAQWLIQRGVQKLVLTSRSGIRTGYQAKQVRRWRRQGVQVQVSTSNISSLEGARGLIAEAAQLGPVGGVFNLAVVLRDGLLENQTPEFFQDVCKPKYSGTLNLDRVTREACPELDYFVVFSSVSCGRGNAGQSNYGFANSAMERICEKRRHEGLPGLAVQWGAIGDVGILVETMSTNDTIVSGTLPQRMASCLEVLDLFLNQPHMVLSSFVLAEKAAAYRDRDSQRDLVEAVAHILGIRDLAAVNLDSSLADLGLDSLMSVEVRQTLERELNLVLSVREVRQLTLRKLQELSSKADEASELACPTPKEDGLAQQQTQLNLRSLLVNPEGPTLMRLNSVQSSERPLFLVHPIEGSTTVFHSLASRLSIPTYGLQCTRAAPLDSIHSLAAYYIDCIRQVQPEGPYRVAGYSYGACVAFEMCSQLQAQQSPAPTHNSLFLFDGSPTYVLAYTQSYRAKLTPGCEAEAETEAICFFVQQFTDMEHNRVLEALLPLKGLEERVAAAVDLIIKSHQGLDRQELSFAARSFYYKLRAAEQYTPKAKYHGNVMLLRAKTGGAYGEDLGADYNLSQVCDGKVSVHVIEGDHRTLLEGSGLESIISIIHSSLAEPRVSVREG
inhibition at 10 µM,IC50,SMILES
73%,2.88 µM,"CC(O)C(=O)N1CC[C@@H](CN2C(=O)C3(CCOC3)N=C2c2ccc(-c3ccc4occc4c3)cc2)C1 (stereo partly drawn) [compound 687, 2-[4-(1-Benzofuran-5-yl)phenyl]-3-{[(3R)-1-(2-hydroxypropanoyl)pyrrolidin-3-yl]methyl}-7-oxa-1,3-diazaspiro[4.4]non-1-en-4-one]"
61%,4.07 µM,"O=C(N1CCCC1)N1CC[C@@H](CN2C(=O)C3(CCOC3)N=C2c2ccc(-c3ccc4occc4c3)cc2)C1 (stereo partly drawn) [compound 689, 2-[4-(1-Benzofuran-5-yl)phenyl]-3-{[(3S)-1-(pyrrolidin-1-ylcarbonyl)pyrrolidin-3-yl]methyl}-7-oxa-1,3-diazaspiro[4.4]non-1-en-4-one]"
63%,~7.41 µM,"CC(O)C(=O)N1CC[C@@H](CN2C(=O)C3(CCOC3)N=C2c2ccc(-c3ccc4c(cnn4C)c3)cc2)C1 (stereo partly drawn) [compound 691, 3-{[(3R)-1-(2-Hydroxypropanoyl)pyrrolidin-3-yl]methyl}-2-[4-(1-methyl-1H-indazol-5-yl)phenyl]-7-oxa-1,3-diazaspiro[4.4]non-1-en-4-one]"
48%,9.77 µM,"Cn1ncc2cc(-c3ccc(C4=NC5(CCOC5)C(=O)N4C[C@@H]4CCN(C(=O)N5CCCC5)C4)cc3)ccc21 (stereo partly drawn) [compound 693, 2-[4-(1-Methyl-1H-indazol-5-yl)phenyl]-3-{[(3S)-1-(pyrrolidin-1-ylcarbonyl)pyrrolidin-3-yl]methyl}-7-oxa-1,3-diazaspiro[4.4]non-1-en-4-one]"
69%,2.45 µM,"Cn1cc(-c2ccc(-c3ccc(C4=NC5(CCOCC5)C(=O)N4CC4CN(C(=O)C5CC5)C4)cc3)cc2)cn1 [compound 694, 3-{[1-(Cyclopropylcarbonyl)azetidin-3-yl]methyl}-2-[4-(1-methyl-1H-pyrazol-4-yl)biphenyl-4-yl]-8-oxa-1,3-diazaspiro[4.5]dec-1-en-4-one]"
43%,5.89 µM,"CC(O)C(=O)N1CC(CN2C(=O)C3(CCOCC3)N=C2c2ccc(-c3ccc(-c4cnn(C)c4)cc3)cc2)C1 (centres unmarked) [compound 695, 3-{[1-(2-Hydroxypropanoyl)azetidin-3-yl]methyl}-2-[4′-(1-methyl-1H-pyrazol-4-yl)biphenyl-4-yl]-8-oxa-1,3-diazaspiro[4.5]dec-1-en-4-one]"
72%,1.7 µM,"Cn1cc(-c2ccc(-c3ccc(C4=NC5(CCOCC5)C(=O)N4CC4CN(C(=O)[C@H]5CCCO5)C4)cc3)cc2)cn1 [compound 696, 2-[4′-(1-Mehtyl-1H-pyrazol-4-yl)biphenyl-4-yl]-3-({1-[(2R)-tetrahydro-furan-2-ylcarbonyl]azetidin-3-yl}methyl)-8-oxa-1,3-diazaspiro[4.5]dec-1-en-4-one]"
58%,5.89 µM,"Cn1cc(-c2ccc(-c3ccc(C4=NC5(CCOCC5)C(=O)N4CC4CN(C(=O)N5CCCC5)C4)cc3)cc2)cn1 [compound 697, 2-[4′-(1-Methyl-1H-pyrazol-4-yl)biphenyl-4-yl]-3-{[1-(pyrrolidin-1-ylcarbonyl)azetidin-3-yl]methyl}-8-oxa-1,3-diazaspiro[4.5]dec-1-en-4-one]"
75%,~2.63 µM,"O=C(C1CC1)N1CC(CN2C(=O)C3(CCOCC3)N=C2c2ccc(-c3ccc4occc4c3)cc2)C1 [compound 702, 2-[4-(1-Benzofuran-5-yl)phenyl]-3-{[1-(cyclopropylcarbonyl)azetidin-3-yl]methyl}-8-oxa-1,3-diazaspiro[4.5]dec-1-en-4-one]"
61%,4.47 µM,"CC(O)C(=O)N1CC(CN2C(=O)C3(CCOCC3)N=C2c2ccc(-c3ccc4occc4c3)cc2)C1 (centres unmarked) [compound 703, 2-[4-(1-Benzofuran-5-yl)phenyl]-3-{[1-(2-hydroxypropanoyl)azetidin-3-yl]methyl}-8-oxa-1,3-diazaspiro[4.5]dec-1-en-4-one]"
71%,2.69 µM,"O=C(N1CCCC1)N1CC(CN2C(=O)C3(CCOCC3)N=C2c2ccc(-c3ccc4occc4c3)cc2)C1 [compound 705, 2-[4-(1-Benzofuran-5-yl)phenyl]-3-{[1-(pyrrolidin-1-ylcarbonyl)azetidin-3-yl]methyl}-8-oxa-1,3-diazaspiro[4.5]dec-1-en-4-one]"
65%,~2.34 µM,"Cn1ncc2cc(-c3ccc(C4=NC5(CCOCC5)C(=O)N4CC4CN(C(=O)C5CC5)C4)cc3)ccc21 [compound 706, 3-{[1-(Cyclopropylcarbonyl)azetidin-3-yl]methyl}-2-[4-(1-methyl-1H-indazol-5-yl)phenyl]-8-oxa-1,3-diazaspiro[4.5]dec-1-en-4-one]"
55%,6.46 µM,"CC(O)C(=O)N1CC(CN2C(=O)C3(CCOCC3)N=C2c2ccc(-c3ccc4c(cnn4C)c3)cc2)C1 (centres unmarked) [compound 707, 3-{[1-(2-Hydroxypropanoyl)azetidin-3-yl]methyl}-2-[4-(1-methyl-1H-indazol-5-yl)phenyl]-8-oxa-1,3-diazaspiro[4.5]dec-1-en-4-one]"
76%,1.86 µM,"Cn1ncc2cc(-c3ccc(C4=NC5(CCOCC5)C(=O)N4CC4CN(C(=O)[C@H]5CCCO5)C4)cc3)ccc21 [compound 708, 2-[4-(1-Methyl-1H-indazol-5-yl)phenyl]-3-({1-[(2R)-tetrahydro-furan-2-ylcarbonyl]azetidin-3-yl}methyl)-8-oxa-1,3-diazaspiro[4.5]dec-1-en-4-one]"
64%,4.07 µM,"Cn1ncc2cc(-c3ccc(C4=NC5(CCOCC5)C(=O)N4CC4CN(C(=O)N5CCCC5)C4)cc3)ccc21 [compound 709, 2-[4-(1-Methyl-1H-indazol-5-yl)phenyl]-3-{[1-(pyrrolidin-1-ylcarbonyl)azetidin-3-yl]methyl}-8-oxa-1,3-diazaspiro[4.5]dec-1-en-4-one]"
66%,2.82 µM,"Cn1cc(-c2ccc(-c3ccc(C4=NC5(CCOC5)C(=O)N4CC4CN(C(=O)C5CC5)C4)cc3)cc2)cn1 (centres unmarked) [compound 710, 3-{[1-(Cyclopropylcarbonyl)azetidin-3-yl]methyl}-2-[4′-(1-methyl-1H-pyrazol-4-yl)biphenyl-4-yl]-7-oxa-1,3-diazaspiro[4.4]non-1-en-4-one]"
60%,6.03 µM,"CC(O)C(=O)N1CC(CN2C(=O)C3(CCOC3)N=C2c2ccc(-c3ccc(-c4cnn(C)c4)cc3)cc2)C1 (centres unmarked) [compound 711, 3-{[1-(2-Hydroxypropanoyl)azetidin-3-yl]methyl}-2-[4′-(1-methyl-1H-pyrazol-4-yl)biphenyl-4-yl]-7-oxa-1,3-diazaspiro[4.4]non-1-en-4-one]"
69%,2.45 µM,"Cn1cc(-c2ccc(-c3ccc(C4=NC5(CCOC5)C(=O)N4CC4CN(C(=O)[C@H]5CCCO5)C4)cc3)cc2)cn1 (stereo partly drawn) [compound 712, 2-[4′-(1-Methyl-1H-pyrazol-4-yl)biphenyl-4-yl]-3-({1-[(2R)-tetrahydro-furan-2-ylcarbonyl]azetidin-3-yl}methyl)-7-oxa-1,3-diazaspiro[4.4]non-1-en-4-one]"
59%,~6.76 µM,"Cn1cc(-c2ccc(-c3ccc(C4=NC5(CCOC5)C(=O)N4CC4CN(C(=O)N5CCCC5)C4)cc3)cc2)cn1 (centres unmarked) [compound 713, 2-[4′-(1-Methyl-1H-pyrazol-4-yl)biphenyl-4-yl]-3-{[1-(pyrrolidin-1-ylcarbonyl)azetidin-3-yl]methyl}-7-oxa-1,3-diazaspiro[4.4]non-1-en-4-one]"
